Test results published in ChEMBL document CHEMBL1134245, “Two novel and potent 3-[(o-methoxyphenyl)piperazinylethyl]-5-phenylthien” (Bioorg Med Chem Lett, 2001).

Tests used:
[1] = molecular target: T1, Alpha-1D adrenergic receptor (Rattus norvegicus, UniProt P23944); assay: In vitro functional activity at Alpha-1D adrenergic receptor in rat aorta; format: tissue-based; conditions: read-out: pA2 (converted)
T1 sequence (P23944 whole entry): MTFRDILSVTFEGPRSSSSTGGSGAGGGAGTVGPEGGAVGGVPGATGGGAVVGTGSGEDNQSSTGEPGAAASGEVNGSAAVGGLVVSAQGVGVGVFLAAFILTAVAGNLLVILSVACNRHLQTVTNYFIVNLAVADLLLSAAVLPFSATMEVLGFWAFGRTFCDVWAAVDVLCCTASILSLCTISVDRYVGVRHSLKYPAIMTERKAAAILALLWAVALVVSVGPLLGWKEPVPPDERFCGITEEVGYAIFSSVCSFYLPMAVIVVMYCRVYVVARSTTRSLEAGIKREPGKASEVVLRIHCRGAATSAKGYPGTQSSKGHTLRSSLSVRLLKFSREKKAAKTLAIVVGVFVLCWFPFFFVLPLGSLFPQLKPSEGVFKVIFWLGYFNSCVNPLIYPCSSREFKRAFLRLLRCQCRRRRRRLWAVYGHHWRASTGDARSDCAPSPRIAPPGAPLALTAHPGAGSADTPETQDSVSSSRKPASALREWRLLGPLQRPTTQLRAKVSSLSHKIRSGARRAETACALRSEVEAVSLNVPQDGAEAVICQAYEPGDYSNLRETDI

[2] = molecular target: T1, Alpha-1D adrenergic receptor; assay: In vitro functional activity at Alpha-1D receptor in rat aorta; format: tissue-based; conditions: read-out: pA2 (converted)

| Kb [1] [nM] | Kb [2] [nM] | Compound |
| --- | --- | --- |
| 0.0251 | – | COc1ccccc1N1CCN(CCn2c(=O)[nH]c3scc(-c4ccccc4)c3c2=O)CC1 [A-119637] |
| – | 0.02 | COc1ccccc1N1CCN(CCn2c(=O)[nH]c3scc(-c4cccc(C)c4)c3c2=O)CC1 [A-123189] |
